GI50 and TGI data for 15 molecules are collected here from PubChem BioAssay (NCI).

Values joined by “and” are separate entries in the source; they are usually repeats but may differ in a detail not shown here. Equal values may be shown once.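 Method: 48-hour compound exposure of cells in 96-well plates, five concentrations, linear interpolation of endpoints. Abbreviation: GI50, concentration required for 50% inhibition of growth. TGI: concentration producing complete growth inhibition.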

Common to all, as to test: NCI anticancer screen, dose series, 48 h
Test [1] has as its system MDA-MB-231 breast.
Test [2] has as its system SR leukemia.
In test [3] the test system is NCI-H226 lung.
Test [4] has as its system SW-620 colon.
Test [5] deals with OVCAR-3 ovarian.
The test system of test [6] is SNB-19 CNS.
Test [7] relates to SNB-75 CNS.
Test [8] has as its system HCT-15 colon.
Test [9] deals with OVCAR-5 ovarian.
Test [10] deals with OVCAR-8 ovarian.

As to `COCc1c(-c2cc3cc(C)cc(OC)c3s2)c2c(N)ncnn2c1CN1CCNC(=O)C1`, the GI50 is 6.11 µM in [1]; 3.81 µM in [2]; 0.291 µM in test [3]; 3.5 µM in [4]; 8.08 µM in test [5]; 8.21 µM in test [6]. Moreover, the GI50 was 2.13 µM in test [7], 3.63 µM in [8], 4.11 µM in [9] and 4.85 µM in test [10]. Also, the TGI in test [1] is 61.4 µM; in [2], 40.5 µM; in [3], 5.41 µM; in [4] it was above 100 µM; in [5], above 100 µM; in test [6], above 100 µM. For the same molecule, the TGI in test [7] was 17.8 µM; in test [8] it was 83.7 µM; in test [9], 77 µM; in test [10], above 100 µM.

`COc1ncc(Nc2ncc([C@@H](C)N3CCN(S(C)(=O)=O)CC3)cc2-c2nc(C)nc(N)n2)cc1F`: the GI50 in [1] is 1.59 µM; in test [2] it was 4.83 µM; in [3], 2.59 µM; in [4], 2.82 µM; in test [5], 0.0468 µM; in [6], 0.325 µM. Also, the GI50 in test [7] is below 0.01 µM; in [8] it was 0.198 µM; in test [9], below 0.0266 µM; in test [10] it was 2.2 µM. Moreover, the TGI in test [1] is 13.9 µM; in [2] it was above 61.5 µM; in test [3], above 100 µM; in test [4], above 100 µM; in test [5], 11.2 µM; in test [6] it was above 66.8 µM. Also, the TGI in test [7] is 0.0585 µM; in test [8], above 100 µM; in [10], above 100 µM.

Take `COc1ccc2c(c1OC)CO[C@@H]2[C@H]1c2c(cc3c(c2OC)OCO3)CCN1S(=O)(=O)c1cn(C)cn1`: the GI50 in test [1] is 4.49 µM; in test [2] it was 0.902 µM; in [3], 0.462 µM; in test [4], 1.2 µM; in test [5], 1.59 µM; in test [6], 1.76 µM. The GI50 is 1.6 µM in test [7], 0.722 µM in test [8], 4.22 µM in test [9] and 3.24 µM in [10]. In addition, the TGI in test [1] was above 100 µM; in test [2], above 100 µM; in test [3], 4.48 µM; in [4] it was above 100 µM; in [5], 4.83 µM; in test [6], above 100 µM. Moreover, the TGI in [7], in test [8], in test [9] and in test [10] was above 100 µM in each case.

On to `CCOCCCn1c2c(c3c(O)cccc31)C(=O)c1ccccc1-2`, for which the GI50 in test [1] is 12.8 µM; in test [2] it was 10.6 µM; in [3], 24.1 µM; in test [4] it was 28.4 µM; in test [5], 21.9 µM; in test [6], 26.7 µM. In addition, the GI50 in test [7] was 20.5 µM; in test [8], 26.8 µM; in [9] it was 17.8 µM; in test [10], 31.1 µM. In addition, the TGI was 35.3 µM in [1]; 27.7 µM in test [2]; 81.6 µM in [3]; above 100 µM in test [4]; 55.3 µM in test [5]; above 100 µM in test [6]. Further, the TGI in [7] is 50.3 µM; in [8], 65.6 µM; in [9], 39.9 µM; in [10], above 100 µM.

As for `O=S(=O)(O)c1cc(O)c(N=Nc2ccc(O)cc2O)c2ccccc12`, the TGI was above 100 µM in test [1]; above 100 µM in [2]; 48.5 µM in [3]; above 100 µM in test [4]; above 100 µM in [5]; above 100 µM in test [6]. The TGI in test [7], in [8], in [9] and in test [10] was above 100 µM throughout.

For `C[C@]12CC[C@H]3[C@@H](CC=C4C[C@@H](N5CCCC5)CC[C@@]43C)[C@@H]1C/C(=C\c1cccc(OCCN3CCOCC3)c1)[C@@H]2O`, the GI50 in [1] is 2.24 µM; in test [2], 3.03 µM; in test [3], 22 µM; in test [4], 2.82 µM; in [5], 2.3 µM; in test [6] it was 4.41 µM. In addition, the GI50 was 14.6 µM in test [7], 2.39 µM in test [8], 31 µM in test [9] and 3.74 µM in test [10]. For the same molecule, the TGI in [1] was 5.37 µM; in test [2], above 100 µM; in test [3], 53.8 µM; in test [4], 18.8 µM; in test [5], 7.55 µM; in test [6] it was above 100 µM. Further, the TGI in test [7] is 34.3 µM; in [8] it was above 100 µM; in test [9], above 100 µM; in [10], 21.7 µM.

`CC1C(C)N(C(=O)CCl)c2ccccc2N1C(=O)CCl` (configuration not stated): the GI50 in test [1] was 1.18 µM; in [2], 0.396 µM; in test [3], 1.11 µM; in [4] it was 0.209 µM; in test [5], 0.194 µM; in test [6] it was 2.16 µM. Besides, the GI50 in [7] is 1.36 µM; in test [8], 0.304 µM; in test [9], 0.896 µM; in [10], 0.55 µM. The TGI in [1] came out at 3.6 µM; in test [2] it was 2.02 µM; in test [3] it was 3.52 µM; in [4], 0.485 µM; in [5], 0.428 µM; in [6], 5.4 µM. Moreover, the TGI is 2.84 µM in test [7], 1.28 µM in test [8], 2.57 µM in test [9] and 12.5 µM in test [10].

Regarding `COC(=O)[C@H](Cc1cnc[nH]1)NC(=O)[C@@H](NC(=O)Nc1cc(C(F)(F)F)cc(C(F)(F)F)c1)C(C)C`, the GI50 was 12.4 µM in [1]; 13.2 µM in [2]; 16.8 µM in test [3]; 18 µM in test [4]; 14.7 µM in test [5]; 10.9 µM in [6]. Also, the GI50 in test [7] is 13.5 µM; in [8], 18.2 µM; in test [9], 16.5 µM; in test [10], 16.5 µM. For the same molecule, the TGI in test [1] amounted to 25.3 µM; in test [2], 32.8 µM; in [3], 36 µM; in test [4], 35.5 µM; in test [5], 28.3 µM; in test [6] it was 23.2 µM. The TGI turned out to be 27 µM in test [7], 36 µM in [8], 31.1 µM in test [9] and 31.6 µM in [10].

Take `CC1=C2[C@@H](CC1)[C@]1(C)O[C@@](C(C)C)(C[C@H]1OC(=O)CO)[C@H]2OC(=O)C1CC1c1ccccc1` (some centres not stated): the GI50 is 15.5 µM in test [1]; 10.9 µM in test [2]; 16.2 µM in [3]; 16.4 µM in test [4]; 13 µM in test [5]; 16.7 µM in test [6]. For the same molecule, the GI50 in test [7] is 13.7 µM; in test [8], 13 µM; in test [9], 20.3 µM; in test [10], 12.9 µM. Further, the TGI in [1] came to 33.7 µM; in test [2], 34.9 µM; in test [3], 35.7 µM; in test [4], 32.6 µM; in [5], 26.4 µM; in test [6] it was 34.6 µM. Besides, the TGI in [7] is 30.4 µM; in test [8], 27.6 µM; in test [9], 40.4 µM; in test [10], 35.6 µM.

Consider `Nc1ccc(C2=CC(c3ccc(Cl)cc3)N3C=CSC3=N2)cc1` (configuration not stated), for which the GI50 in test [1] was 4.76 µM; in test [2] it was 2.1 µM; in test [3], 9.36 µM; in [4], 2.07 µM; in test [5], 2.79 µM; in test [6] it was 11.8 µM. For the same molecule, the GI50 was 5.29 µM in [7], 2 µM in [8], 12.2 µM in test [9] and 4.16 µM in test [10]. The TGI in test [1] was 46.9 µM; in [2] it was 5.51 µM; in test [3] it was above 100 µM; in [4] it was 4.51 µM; in test [5] it was 7.43 µM; in [6], 29 µM. In addition, the TGI was found to be 22.8 µM in test [7], 5.63 µM in test [8], 34.7 µM in test [9] and 48.1 µM in [10].

As for `O=C(/C=C\c1ccc([N+](=O)[O-])cc1)c1ccccc(=O)c1O`, the TGI in [1] is 17.1 µM; in test [2], above 100 µM; in [3], 6.7 µM; in test [4], above 21.6 µM; in [5], 14.4 µM; in test [6], 16.8 µM. Further, the TGI in test [7] worked out at 4.75 µM; in test [8], 4.2 µM; in [9], 9.92 µM; in [10] it was 11.3 µM.

For `Nc1nc([Se])c2ncn(C3OC(CO)C(O)C3O)c2n1` (configuration not stated), the GI50 was 2.81 µM in test [1]; 2.88 µM in test [2]; 9.29 µM in test [3]; 28.8 µM in test [4]; 17.4 µM in test [5]; above 100 µM in [6]. Also, the GI50 is above 100 µM in test [7], 7.84 µM in test [8], 8.24 µM in [9] and 3.86 µM in test [10]. For the same molecule, the TGI is 69.8 µM in [1]; above 100 µM in test [2]; above 100 µM in [3]; above 100 µM in test [4]; 68.8 µM in test [5]; above 100 µM in test [6]. In addition, the TGI in [7], in [8], in test [9] and in test [10] was above 100 µM throughout.

As to `Nc1ccc(C(=O)N/C(=C\c2cccc([N+](=O)[O-])c2)c2nc3[nH]c(=S)[nH]c(=O)c3[nH]2)cc1`, the TGI in [1] was above 94.5 µM; in test [2], above 100 µM; in test [3], above 96.7 µM; in [4], above 100 µM; in test [5], above 100 µM; in [6], above 93.1 µM. The TGI in test [7] was 32.1 µM; in test [8], above 100 µM; in test [9], above 100 µM; in [10], above 90.3 µM.

Consider `C=C/C=C/[C@@H](O)CC(=C)C[C@H]1OC2[C@H](C)[C@@H](OC(=O)C[C@H]3C[C@H](OC(C)=O)C[C@@]4(C[C@@](C)(O)C[C@H](CC(=C)[C@@H](C)[C@H](OC(C)=O)[C@H](C)C(=O)C[C@@H]5C[C@H](OC)CC6(C[C@@H](O)C[C@H](/C=C\CCC[C@H]7O[C@](O)(C=C[C@H]7C)[C@H]2O)O6)O5)O4)O3)[C@@H]1O`, for which the GI50 is 0.000409 µM and 0.0025 µM in test [1]; 0.0025 µM in test [2]; 0.000503 µM and 0.0025 µM in [3]; 0.00123 µM and 0.0025 µM in [4]; below 0.0025 µM in [5]; 0.000625 µM and 0.0025 µM in test [6]. Also, the GI50 in test [7] was above 25 µM; in [8], 0.00619 µM and 0.0025 µM; in [9], 0.00293 µM and 0.0025 µM; in test [10] it was 0.00053 µM and 0.0025 µM. Also, the TGI in [1] was 0.00362 µM; in test [2], above 25 µM; in [4], above 25 µM; in test [5], below 0.0025 µM; in test [6], above 25 µM; in test [7], above 25 µM. The TGI is above 9.46 µM in test [8] and above 25 µM in test [9].

For the molecule `COc1ccc(CN2c3ccccc3Sc3ccccc32)c(C(F)(F)F)c1`, the GI50 is 3.05 µM in test [1]; 0.483 µM in test [2]; 10.4 µM in test [3]; 0.443 µM in test [4]; 0.513 µM in test [5]; 3.8 µM in test [6]. Also, the GI50 in test [7] is 0.241 µM; in test [8] it was 0.489 µM; in [9] it was 9.75 µM; in test [10] it was 2.22 µM. Moreover, the TGI was 58.6 µM in test [1]; above 100 µM in test [2]; 56.3 µM in test [3]; above 100 µM in test [4]; 24.3 µM in test [5]; above 100 µM in test [6]. Besides, the TGI in test [7], in test [8], in test [9] and in test [10] was above 100 µM each time.
